From ChEMBL document CHEMBL1201862, “PubChem BioAssay data set” (2004)
Activity calls are given as the source filed them.

Experiments:
Cytochrome P450 3A4 [1] = target: T1, Cytochrome P450 3A4 (Homo sapiens, UniProt P08684); conditions: Potency
Coagulation factor XII = target: T2, Coagulation factor XII (Homo sapiens, UniProt P00748); format: functional;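 also: activated factor XIIa alpha cleaving a fluorogenic AMC peptide substrate; inhibitor potency from loss of enzyme activity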
T2 sequence (P00748 whole entry): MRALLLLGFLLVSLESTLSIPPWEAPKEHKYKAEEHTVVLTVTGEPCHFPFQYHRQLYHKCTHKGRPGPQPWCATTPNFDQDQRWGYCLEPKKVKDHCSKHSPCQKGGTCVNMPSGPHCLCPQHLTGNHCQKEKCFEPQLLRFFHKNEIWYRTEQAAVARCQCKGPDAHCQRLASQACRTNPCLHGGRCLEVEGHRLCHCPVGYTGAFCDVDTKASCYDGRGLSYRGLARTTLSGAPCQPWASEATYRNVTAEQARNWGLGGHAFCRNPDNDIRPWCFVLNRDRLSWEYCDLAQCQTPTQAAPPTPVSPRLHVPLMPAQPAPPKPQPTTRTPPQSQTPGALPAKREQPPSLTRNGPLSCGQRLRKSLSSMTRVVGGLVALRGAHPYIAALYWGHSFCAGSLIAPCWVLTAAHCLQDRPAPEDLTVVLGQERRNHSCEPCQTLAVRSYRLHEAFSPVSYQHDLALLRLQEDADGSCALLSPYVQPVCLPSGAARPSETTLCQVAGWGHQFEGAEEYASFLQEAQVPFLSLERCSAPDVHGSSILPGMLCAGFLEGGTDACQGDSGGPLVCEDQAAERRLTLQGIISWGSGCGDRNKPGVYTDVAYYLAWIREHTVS

[2] = target: T3, Voltage-gated N-type calcium channel alpha-1B subunit/Amyloid beta A4 precursor protein-binding family A member 1 (Homo sapiens, UniProt Q00975+Q02410); format: protein assay
[3] = target: T3, Voltage-gated N-type calcium channel alpha-1B subunit/Amyloid beta A4 precursor protein-binding family A member 1; format: protein assay; remark: listed apart in the source
[4] = reduced cellular PGC1a acetyl-lysine signal – cell-based, cherry-picked samples, dose response (AID 720514); format: functional;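 also: potency may reflect raised or lowered acetylation signal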
[5] = target: 26S proteasome non-ATPase regulatory subunit 14 (Homo sapiens, UniProt O00487); test: inhibition of proteasome subunit RPN11 – biochemical, fluorescence polarization, uHTS hits, confirmation (AID 602368); format: functional
Chain of 26S proteasome non-ATPase regulatory subunit 14 (O00487 whole entry): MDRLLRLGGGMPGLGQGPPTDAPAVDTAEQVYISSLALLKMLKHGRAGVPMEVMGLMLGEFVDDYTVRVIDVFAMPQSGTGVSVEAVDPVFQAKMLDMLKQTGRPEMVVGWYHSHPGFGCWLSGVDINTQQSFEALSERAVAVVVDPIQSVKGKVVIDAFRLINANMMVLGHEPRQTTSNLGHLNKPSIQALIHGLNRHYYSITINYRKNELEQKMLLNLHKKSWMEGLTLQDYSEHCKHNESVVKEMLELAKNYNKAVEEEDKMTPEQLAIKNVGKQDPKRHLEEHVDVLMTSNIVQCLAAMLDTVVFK

[6] = target: 72 kDa type IV collagenase (Homo sapiens, UniProt P08253); test: Dose Response validation of uHTS RPN11 inhibitor hits using a MMP-2 Fluorescence assay.; format: functional
Chain of 72 kDa type IV collagenase (P08253 whole entry): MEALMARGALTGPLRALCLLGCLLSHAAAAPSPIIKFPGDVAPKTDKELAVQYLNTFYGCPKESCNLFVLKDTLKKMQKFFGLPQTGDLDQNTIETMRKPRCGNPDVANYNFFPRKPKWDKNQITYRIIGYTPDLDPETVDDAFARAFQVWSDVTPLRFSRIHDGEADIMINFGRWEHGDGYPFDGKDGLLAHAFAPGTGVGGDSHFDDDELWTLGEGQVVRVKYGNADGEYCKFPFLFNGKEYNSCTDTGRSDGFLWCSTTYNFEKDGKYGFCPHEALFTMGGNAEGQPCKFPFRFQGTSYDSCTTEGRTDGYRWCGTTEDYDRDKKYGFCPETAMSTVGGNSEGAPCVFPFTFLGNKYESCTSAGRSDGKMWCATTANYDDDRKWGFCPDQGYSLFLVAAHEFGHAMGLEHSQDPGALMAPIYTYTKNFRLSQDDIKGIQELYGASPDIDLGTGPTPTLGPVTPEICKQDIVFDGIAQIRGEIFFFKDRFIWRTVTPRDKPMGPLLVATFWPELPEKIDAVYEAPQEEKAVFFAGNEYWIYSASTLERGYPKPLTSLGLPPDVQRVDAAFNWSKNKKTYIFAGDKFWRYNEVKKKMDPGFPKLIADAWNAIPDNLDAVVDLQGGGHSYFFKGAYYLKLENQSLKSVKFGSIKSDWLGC

Prothrombin [7] = target: Prothrombin (Bos taurus, UniProt P00735); test: thrombin protease inhibitors – biochemical, fluorescence polarization, uHTS hits, dose response (AID 602369); format: functional
Large T antigen = Large T antigen (Simian virus 40, UniProt P03070); format: functional, Betapolyomavirus macacae;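 also: Confirmatory-stage PubChem screen for compounds that inhibit SV40 T antigen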
Chain of Large T antigen (P03070 whole entry): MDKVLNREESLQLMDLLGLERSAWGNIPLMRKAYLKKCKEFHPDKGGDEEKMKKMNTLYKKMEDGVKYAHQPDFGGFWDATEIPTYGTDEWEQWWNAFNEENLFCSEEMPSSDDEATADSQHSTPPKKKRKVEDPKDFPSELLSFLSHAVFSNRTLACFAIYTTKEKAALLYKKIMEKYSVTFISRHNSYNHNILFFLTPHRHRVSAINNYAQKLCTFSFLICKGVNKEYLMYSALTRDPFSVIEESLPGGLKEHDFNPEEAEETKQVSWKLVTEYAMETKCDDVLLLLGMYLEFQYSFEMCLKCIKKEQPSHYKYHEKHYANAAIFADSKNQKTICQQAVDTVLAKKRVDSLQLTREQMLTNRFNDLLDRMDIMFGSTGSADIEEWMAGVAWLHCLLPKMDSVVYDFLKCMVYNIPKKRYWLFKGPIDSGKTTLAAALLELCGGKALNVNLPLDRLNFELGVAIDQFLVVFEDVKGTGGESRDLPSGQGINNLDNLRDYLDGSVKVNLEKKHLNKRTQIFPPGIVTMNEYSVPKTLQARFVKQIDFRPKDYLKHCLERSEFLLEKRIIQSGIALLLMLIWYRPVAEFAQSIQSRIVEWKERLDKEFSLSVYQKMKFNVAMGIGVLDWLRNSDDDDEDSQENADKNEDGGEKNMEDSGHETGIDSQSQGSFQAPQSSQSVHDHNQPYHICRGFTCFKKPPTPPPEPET

[8] = target: DNA dC->dU-editing enzyme APOBEC-3G (Homo sapiens, UniProt Q9HC16); test: Dose Response confirmation of small molecule APOBEC3G DNA Deaminase Inhibitors via a fluorescence-based single-stranded DNA deaminase assay. [Related pubchem assays (depositor defined):AID493012, AID493028]; format: functional
Chain of DNA dC->dU-editing enzyme APOBEC-3G (Q9HC16 whole entry): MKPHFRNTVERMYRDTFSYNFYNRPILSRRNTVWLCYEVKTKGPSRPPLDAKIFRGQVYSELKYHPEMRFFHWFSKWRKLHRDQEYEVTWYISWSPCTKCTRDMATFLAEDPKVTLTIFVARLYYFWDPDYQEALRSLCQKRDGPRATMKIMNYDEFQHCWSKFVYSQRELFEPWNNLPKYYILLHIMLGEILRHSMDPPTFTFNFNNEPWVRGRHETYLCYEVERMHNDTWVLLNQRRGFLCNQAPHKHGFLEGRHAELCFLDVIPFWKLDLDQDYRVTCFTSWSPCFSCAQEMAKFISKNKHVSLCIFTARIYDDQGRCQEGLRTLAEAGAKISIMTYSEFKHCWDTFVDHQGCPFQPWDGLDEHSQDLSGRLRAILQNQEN

[9] = target: Eukaryotic translation initiation factor 4E (Mus musculus, UniProt P63073); test: blockers of eIF4G binding by eIF4E – biochemical, TR-FRET, dose response (AID 855); format: functional;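 also: potency for disrupting eIF4E binding to eIF4GI seen as loss of FRET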
Chain of Eukaryotic translation initiation factor 4E (P63073 whole entry): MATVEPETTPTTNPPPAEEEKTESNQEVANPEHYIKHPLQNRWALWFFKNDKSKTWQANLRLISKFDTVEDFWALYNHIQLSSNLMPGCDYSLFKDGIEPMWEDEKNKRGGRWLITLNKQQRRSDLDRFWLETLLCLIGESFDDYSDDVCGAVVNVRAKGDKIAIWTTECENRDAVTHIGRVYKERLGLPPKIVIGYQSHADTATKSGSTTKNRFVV

Cytochrome P450 2C9 = Cytochrome P450 2C9 (Homo sapiens, UniProt P11712)
Chain of Cytochrome P450 2C9 (P11712 whole entry): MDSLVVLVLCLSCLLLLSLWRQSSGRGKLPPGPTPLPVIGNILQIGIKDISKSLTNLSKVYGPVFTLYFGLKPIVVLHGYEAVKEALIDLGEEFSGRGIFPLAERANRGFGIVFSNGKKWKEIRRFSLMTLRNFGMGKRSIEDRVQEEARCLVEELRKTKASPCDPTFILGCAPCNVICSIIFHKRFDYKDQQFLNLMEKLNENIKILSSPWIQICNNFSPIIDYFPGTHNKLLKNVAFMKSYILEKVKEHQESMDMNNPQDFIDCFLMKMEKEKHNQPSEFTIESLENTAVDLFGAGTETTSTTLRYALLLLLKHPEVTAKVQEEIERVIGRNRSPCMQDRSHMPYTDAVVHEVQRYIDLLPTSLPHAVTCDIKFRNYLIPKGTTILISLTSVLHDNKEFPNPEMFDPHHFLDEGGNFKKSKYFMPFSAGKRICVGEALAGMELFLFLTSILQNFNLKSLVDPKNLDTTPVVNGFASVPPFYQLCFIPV

Prothrombin [10] = target: Prothrombin (Homo sapiens, UniProt P00734); test: Thrombin 1536 HTS Dose Response Confirmation. [Related pubchem assays: 1046 (Thrombin 1536 HTS; hits were confirmed in this assay)]; format: functional
HEK293 [11] = test: NOD2 signaling inhibitors in MDP-stimulated cells, cell-based, uHTS, luminescence (AID 2001); format: functional; conditions: Homo sapiens
HEK293 [12] = test: cells; format: functional, cell-based; conditions: Homo sapiens
HEK293 [13] = test: cells; format: functional, cell-based; conditions: Homo sapiens; remark: listed apart in the source
HEK293 [14] = test: inhibition of NOD1-driven NF-kB reporter – cell-based, luminescence, uHTS, primary screen (AID 1578); format: functional; conditions: Homo sapiens
[15] = target: T4, Calpain-2 catalytic subunit (Sus scrofa, UniProt P43367); test: m-calpain protease blockers, concentration series – biochemical, fluorogenic peptide substrate, dose response (AID 1420); format: functional
T4 sequence (P43367 whole entry): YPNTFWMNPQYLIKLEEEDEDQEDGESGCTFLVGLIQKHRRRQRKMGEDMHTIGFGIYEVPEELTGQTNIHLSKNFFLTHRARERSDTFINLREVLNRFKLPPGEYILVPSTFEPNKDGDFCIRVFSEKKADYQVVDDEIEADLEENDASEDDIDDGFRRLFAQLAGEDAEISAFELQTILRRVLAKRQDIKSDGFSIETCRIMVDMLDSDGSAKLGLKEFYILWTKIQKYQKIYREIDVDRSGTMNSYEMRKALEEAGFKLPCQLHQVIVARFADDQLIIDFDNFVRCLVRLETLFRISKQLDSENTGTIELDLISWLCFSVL

[16] = target: Nucleotide-binding oligomerization domain-containing protein 2 (Homo sapiens, UniProt Q9HC29); test: inhibition of NOD2-driven NF-kB reporter – cell-based, luminescence, uHTS, HEK293 (AID 1566); format: functional
Chain of Nucleotide-binding oligomerization domain-containing protein 2 (Q9HC29 whole entry, the tested form may be a part): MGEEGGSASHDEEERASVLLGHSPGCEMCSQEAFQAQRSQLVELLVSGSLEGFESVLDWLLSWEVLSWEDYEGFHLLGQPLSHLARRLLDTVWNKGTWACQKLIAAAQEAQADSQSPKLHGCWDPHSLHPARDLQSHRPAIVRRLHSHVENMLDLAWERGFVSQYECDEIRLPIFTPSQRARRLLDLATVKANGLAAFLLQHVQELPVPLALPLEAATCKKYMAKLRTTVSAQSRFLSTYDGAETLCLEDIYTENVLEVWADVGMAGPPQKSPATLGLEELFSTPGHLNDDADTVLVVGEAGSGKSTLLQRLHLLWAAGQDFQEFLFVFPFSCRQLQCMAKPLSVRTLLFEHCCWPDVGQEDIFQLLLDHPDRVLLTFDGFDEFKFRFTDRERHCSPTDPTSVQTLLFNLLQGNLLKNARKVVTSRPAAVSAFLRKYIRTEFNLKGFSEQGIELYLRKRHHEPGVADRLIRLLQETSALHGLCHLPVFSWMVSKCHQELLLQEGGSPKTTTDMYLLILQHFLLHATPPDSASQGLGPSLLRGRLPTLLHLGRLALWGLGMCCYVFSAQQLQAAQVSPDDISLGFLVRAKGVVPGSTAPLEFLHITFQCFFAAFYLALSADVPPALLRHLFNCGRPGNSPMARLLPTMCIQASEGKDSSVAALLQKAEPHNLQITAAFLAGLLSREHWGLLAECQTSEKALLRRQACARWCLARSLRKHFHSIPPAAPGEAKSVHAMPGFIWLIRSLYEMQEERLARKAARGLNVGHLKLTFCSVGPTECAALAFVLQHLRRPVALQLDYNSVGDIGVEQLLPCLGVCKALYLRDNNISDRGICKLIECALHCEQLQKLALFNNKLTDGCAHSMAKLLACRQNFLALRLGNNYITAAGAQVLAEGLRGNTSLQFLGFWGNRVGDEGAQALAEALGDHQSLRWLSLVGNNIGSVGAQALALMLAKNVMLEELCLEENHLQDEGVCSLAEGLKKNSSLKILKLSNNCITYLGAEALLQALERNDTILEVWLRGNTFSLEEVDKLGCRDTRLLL

HEK293 [17] = test: cells; format: functional, cell-based; conditions: Homo sapiens; remark: listed apart in the source
Cytochrome P450 3A4 [18] = target: T1, Cytochrome P450 3A4
Cytochrome P450 1A2 = target: T5, Cytochrome P450 1A2 (Homo sapiens, UniProt P05177);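 also: PubChem cytochrome P450 panel assay, CYP1A2 panel member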
T5 sequence (P05177 whole entry): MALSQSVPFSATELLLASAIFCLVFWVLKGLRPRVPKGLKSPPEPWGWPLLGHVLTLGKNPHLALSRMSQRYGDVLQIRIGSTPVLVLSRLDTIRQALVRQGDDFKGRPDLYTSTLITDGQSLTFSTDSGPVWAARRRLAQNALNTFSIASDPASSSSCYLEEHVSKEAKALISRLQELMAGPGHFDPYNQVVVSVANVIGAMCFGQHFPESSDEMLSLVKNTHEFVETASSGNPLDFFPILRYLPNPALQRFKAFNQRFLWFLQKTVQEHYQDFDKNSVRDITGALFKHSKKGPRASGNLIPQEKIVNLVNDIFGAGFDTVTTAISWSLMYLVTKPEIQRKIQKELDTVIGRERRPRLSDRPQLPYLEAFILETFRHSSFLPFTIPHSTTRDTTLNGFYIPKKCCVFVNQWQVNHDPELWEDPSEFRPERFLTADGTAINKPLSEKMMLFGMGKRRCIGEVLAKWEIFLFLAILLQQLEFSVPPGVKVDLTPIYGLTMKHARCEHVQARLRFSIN

[19] = viability of HCT116 lacking mutant beta-catenin – cell-based, human colon tumor, dose response (AID 1045); format: functional;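 also: HCT116 colon tumor cells with beta catenin knocked out; cells exposed to compound for 60 hours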
[20] = viability of PTEN-deleted HCT116 cells – cell-based, HCT116 PTEN knockout, dose response (AID 1047); format: functional;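 also: HCT116 colon tumor cells with PTEN knocked out; cells exposed to compound for 60 hours before readout; potency for loss of cell viability measured by luminescence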
H9c2 = test: cells; format: functional, cell-based; conditions: Rattus norvegicus, H9c2, Myocardium
[21] = target: T6, Heat shock factor protein 1 (Mus musculus, UniProt P38532); test: decrease of HSF1-responsive luciferase luminescence – cell-based, NIH3T3, dose retest, confirmation (AID 2382); format: functional;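 also: NIH3T3 fibroblasts with HSF1-driven luciferase reporter stressed by proteasome inhibitor MG132; luminescence from HSF1-driven luciferase expression after 8 hours of MG132 stress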
T6 sequence (P38532 whole entry): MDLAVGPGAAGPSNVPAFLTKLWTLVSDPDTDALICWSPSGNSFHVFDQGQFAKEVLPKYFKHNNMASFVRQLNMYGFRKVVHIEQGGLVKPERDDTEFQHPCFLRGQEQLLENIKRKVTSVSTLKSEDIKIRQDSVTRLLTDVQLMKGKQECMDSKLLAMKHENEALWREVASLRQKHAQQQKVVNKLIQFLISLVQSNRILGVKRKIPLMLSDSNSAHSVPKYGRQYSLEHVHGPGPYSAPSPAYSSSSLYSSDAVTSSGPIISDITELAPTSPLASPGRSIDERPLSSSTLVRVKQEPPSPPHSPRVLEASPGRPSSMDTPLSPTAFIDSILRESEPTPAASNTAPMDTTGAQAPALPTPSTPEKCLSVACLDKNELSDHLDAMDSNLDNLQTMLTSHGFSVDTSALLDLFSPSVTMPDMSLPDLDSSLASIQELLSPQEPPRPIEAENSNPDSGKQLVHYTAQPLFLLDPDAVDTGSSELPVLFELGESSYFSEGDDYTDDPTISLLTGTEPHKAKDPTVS

T1 sequence (P08684 whole entry): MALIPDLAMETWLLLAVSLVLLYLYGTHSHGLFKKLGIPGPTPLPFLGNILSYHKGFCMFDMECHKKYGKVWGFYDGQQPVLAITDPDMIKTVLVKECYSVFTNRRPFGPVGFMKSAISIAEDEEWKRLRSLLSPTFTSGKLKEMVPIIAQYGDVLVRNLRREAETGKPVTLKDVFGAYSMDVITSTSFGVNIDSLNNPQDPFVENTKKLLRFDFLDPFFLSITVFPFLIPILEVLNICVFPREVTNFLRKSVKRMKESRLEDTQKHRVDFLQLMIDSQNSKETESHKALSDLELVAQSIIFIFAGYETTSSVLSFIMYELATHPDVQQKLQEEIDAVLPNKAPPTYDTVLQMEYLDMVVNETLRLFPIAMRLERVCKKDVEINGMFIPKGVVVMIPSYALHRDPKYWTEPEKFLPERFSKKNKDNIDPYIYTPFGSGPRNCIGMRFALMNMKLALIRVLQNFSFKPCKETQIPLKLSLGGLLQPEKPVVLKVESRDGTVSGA

## CC(CCC(=O)O)(c1ccc(O)cc1)c1ccc(O)cc1
Cytochrome P450 3A4 [1]
  AC50: 39.8 µM (inconclusive)

## Cc1ccc(C(=O)NCCN2CCNC2=O)cc1
Coagulation factor XII
  IC50: > 50 µM (inactive)

## NS(=O)(=O)c1ccc(CCNC(=O)/C=C/c2ccc([N+](=O)[O-])cc2)cc1
[2]
  IC50: 9.65 µM (active)
[3]
  IC50: > 50 µM (inactive)

## O=C(C1CC1)N1C[C@@H]2N[C@H](C1)[C@@H]2c1ccc(/C=C/c2ccccc2)cc1
[4]
  AC50: 32.3 µM (active)

## CCOC(=O)C1CCN(C(=O)CCc2nc3sc4c(c3c(=O)[nH]2)CCCC4)CC1
[5]
  IC50: 31.6 µM (active)
[6]
  IC50: > 100 µM (inactive)
Prothrombin [7]
  IC50: 36.5 µM (active)

## COc1cc(/C=C2\N=C3CCCCCN3C2=O)ccc1O
[5]
  IC50: 14.8 µM (active)
[6]
  IC50: > 100 µM (inactive)
Prothrombin [7]
  IC50: 29.7 µM (active)
Large T antigen
  IC50: 9.11 µM (active)

## O=c1c(O)c(-c2ccc(O)c(O)c2)oc2c(OC3OC(CO)C(O)C(O)C3O)c(O)cc(O)c12 (centres undefined)
Cytochrome P450 3A4 [1]
  AC50: 39.8 µM (inconclusive)

## O=C(CC1Sc2ncnn2C1=O)Nc1ccc(Br)cc1 (centres undefined)
[8]
  IC50: 55.8 µM (active)

## CCN1C(C)=C(C(=O)OC)C(c2ccccc2)N2C(=O)[C@@]3(C(=O)OC)O[C@@]12C1C(=O)CCCC13 (some centres undefined)
Cytochrome P450 3A4 [1]
  AC50: 3.98 µM (inconclusive)

## CC(=O)C1=C(O)C(=CC=Cc2ccccc2)OC1=O
[5]
  IC50: 35.2 µM (active)
[6]
  IC50: > 100 µM (inactive)
Prothrombin [7]
  IC50: 50.4 µM (active)

## c1ccc(-n2nnc3cnccc32)cc1
[9]
  IC50: > 64 µM (inactive)

## Cc1cc(C)n(C(=O)CNc2cccc(Cl)c2C)n1
Coagulation factor XII
  IC50: > 50 µM (inactive)

## CCc1c(C)sc(NC(=O)C2CCCCC2C(=O)O)c1C(N)=O (centres undefined)
[9]
  IC50: > 64 µM (inactive)

## COc1ccc(Oc2c(Cl)cnn(-c3ccccc3)c2=O)cc1
[4]
  AC50: 19.7 µM (active)
Cytochrome P450 2C9
  AC50: 11.2 µM (inconclusive)

## CCOc1cc(C(=S)N2CCOCC2)ccc1O
[9]
  IC50: > 64 µM (inactive)
[8]
  IC50: 42.8 µM (active)

## CC(Oc1ccccc1)C(=O)NC1C(=O)N2C(C(=O)O)C(C)(C)S[C@@H]12 (some centres undefined)
Cytochrome P450 3A4 [1]
  AC50: 0.251 µM (inconclusive)

## N#Cc1ccccc1NC(=O)COC(=O)COc1ccccc1[N+](=O)[O-]
Prothrombin [10]
  IC50: 9.18 µM (active)

## CCN1C(=O)c2[nH]nc(C(=O)OC)c2C1=O
Coagulation factor XII
  IC50: > 50 µM (inactive)

## COc1cc([N+](=O)[O-])ccc1-c1ccc(/C=N/NC(=O)c2ccccc2O)o1
HEK293 [11]
  IC50: 14.1 µM (inactive)
HEK293 [12]
  IC50: > 20 µM (inactive)
HEK293 [13]
  IC50: > 20 µM (inactive)
HEK293 [14]
  EC50: > 20 µM (inactive)
[15]
  IC50: 8.3 µM (not active)
[16]
  EC50: > 20 µM (inactive)
HEK293 [17]
  IC50: 19.9 µM (active)

## Cc1nc(NCCc2ccccc2F)c(C#N)c(C)c1[N+](=O)[O-]
Prothrombin [10]
  IC50: > 50 µM (not active)

## Cc1ccc(SCc2cc(=O)[nH]c(NC(N)=Nc3ccc(C)c(C)c3)n2)cc1
Cytochrome P450 3A4 [18]
  AC50: 7.08 µM (inconclusive)
Cytochrome P450 1A2
  AC50: 5.62 µM (inconclusive)
[9]
  IC50: > 64 µM (inactive)
Cytochrome P450 2C9
  AC50: 2.24 µM (inconclusive)

## O=C(Nc1ccc(F)cc1)Nc1nnc(-c2ccncc2)s1
[19]
  EC50: 25.9 µM (active)
[5]
  IC50: 23.2 µM (active)
[6]
  IC50: > 100 µM (inactive)
[20]
  EC50: 22.4 µM (active)
Prothrombin [7]
  IC50: 65.5 µM (active)

## O=[N+]([O-])c1cc(-c2nnc(O)c3ccccc23)ccc1NCCCO
[4]
  AC50: 25 µM (active)
H9c2
  IC50: 16.3 µM (active)

## O=C(c1cccs1)n1nc(-c2ccco2)nc1SCc1ccccc1
[21]
  EC50: > 195 µM (not active)
Prothrombin [10]
  IC50: 1.48 µM (active)
